Measured values as given in patent EP2886536A1 (priority 2013, dated 2015).
Counter-ions that a name gives are not always drawn.

Experiments:
SK-Mel3 = test: cells; assay type: cell-based; conditions: Homo sapiens, SK-MEL3, 96 h, read-out: IC50 values
HEL 92.1.7 = test: cells; assay type: cell-based; conditions: Homo sapiens, HEL 92.1.7, 96 h, read-out: IC50 values
Jurkat = test: cells; assay type: cell-based; conditions: Homo sapiens, 96 h, read-out: IC50 values
U-937 = test: cells; assay type: cell-based; conditions: Homo sapiens, U-937, 96 h, read-out: IC50 values
Capan-1 = test: cells; assay type: cell-based; conditions: Homo sapiens, CAPAN-1, 96 h, read-out: IC50 values
LnCap clone FGC = test: cells; assay type: cell-based; conditions: Homo sapiens, 96 h, read-out: IC50 values
NCl-H460 = test: cells; assay type: cell-based; conditions: 96 h, read-out: IC50 values
HT-29 = test: cells; assay type: cell-based; conditions: Homo sapiens, HT-29, 96 h, read-out: IC50 values
MG-63 = test: cells; assay type: cell-based; conditions: Homo sapiens, MG-63, 96 h, read-out: IC50 values
SK-ES1 = test: cells; assay type: cell-based; conditions: Homo sapiens, SK-ES1, 96 h, read-out: IC50 values
physchem = conditions: buffer, pH 7.2
in vitro [1] = conditions: mouse, plasma
in vitro [2] = conditions: human, plasma

## Cn1c(CCCC(=O)O)nc2cc(N(CCCl)CCCl)ccc21 [bendamustine-HCl, 4-{5-[bis(2-chloroethyl)amino]-1-methyl-1H-benzimidazol-2-yl}butanoic acid, reference compound]
SK-Mel3
  IC50: > 100 µM
HEL 92.1.7
  IC50: 84 ± 7.7 µM
Jurkat
  IC50: 42.6 ± 5.6 µM
U-937
  IC50: 91.9 ± 16.4 µM
Capan-1
  IC50: 25.2 ± 5.4 µM
LnCap clone FGC
  IC50: 71.6 ± 5.4 µM
NCl-H460
  IC50: 89.5 ± 10.4 µM
HT-29
  IC50: > 100 µM
MG-63
  IC50: 55 ± 3.3 µM
SK-ES1
  IC50: 11 ± 1.6 µM
physchem
  half-life: 10.8 ± 2.9 min
In vitro [1]
  half-life: 35 ± 2.2 min
In vitro [2]
  half-life: 131 ± 10.2 min

## CCOC(=O)CCCc1nc2ccc(N(CCCl)CCCl)cc2n1C [iso-bendamustine ethyl ester, ethyl 4-{6-[bis(2-chloroethyl)amino]-1-methyl-1H-benzimidazol-2-yl}butanoate]
SK-Mel3
  IC50: 11.7 ± 2.5 µM
HEL 92.1.7
  IC50: 3.5 ± 0.3 µM
Jurkat
  IC50: 3.9 ± 0.3 µM
U-937
  IC50: 1.6 ± 0.03 µM
Capan-1
  IC50: 0.91 ± 0.15 µM
LnCap clone FGC
  IC50: 1.5 ± 0.34 µM
NCl-H460
  IC50: 5.4 ± 0.2 µM
HT-29
  IC50: 11 ± 1.1 µM
MG-63
  IC50: 1.9 ± 0.1 µM
SK-ES1
  IC50: 0.24 ± 0.04 µM
physchem
  half-life: 15.3 ± 3.8 min
In vitro [1]
  half-life: < 2 min
In vitro [2]
  half-life: 141 ± 6.3 min

## Cl.Cn1c(CCCC(=O)O)nc2ccc(N(CCCl)CCCl)cc21 [iso-bendamustine-HCl, 4-{6-[bis(2-chloroethyl)amino]-1-methyl-1H-benzimidazol-2-yl)butanoic acid hydrochloride]
SK-Mel3
  IC50: > 100 µM
HEL 92.1.7
  IC50: 76.5 ± 4.5 µM
Jurkat
  IC50: 59.5 ± 4 µM
U-937
  IC50: 59.8 ± 5.2 µM
Capan-1
  IC50: 24.6 ± 4.4 µM
LnCap clone FGC
  IC50: 18.9 ± 2.6 µM
NCl-H460
  IC50: > 100 µM
HT-29
  IC50: > 100 µM
MG-63
  IC50: 50.1 ± 5.5 µM
SK-ES1
  IC50: 9.6 ± 1.5 µM
physchem
  half-life: 11.6 ± 1.9 min
In vitro [1]
  half-life: 60.5 ± 2.7 min
In vitro [2]
  half-life: 83.8 ± 9.3 min
